The assay addresses T1, endogenous P2X4 channels (Homo sapiens, UniProt Q99571).
T1 construct: measure calcium influx through endogenous P2X4 channels into primary human monocytes; endogenous in cells; host or cells: primary human monocytes isolated from donor PBMCs
T1 sequence (Q99571 1-388): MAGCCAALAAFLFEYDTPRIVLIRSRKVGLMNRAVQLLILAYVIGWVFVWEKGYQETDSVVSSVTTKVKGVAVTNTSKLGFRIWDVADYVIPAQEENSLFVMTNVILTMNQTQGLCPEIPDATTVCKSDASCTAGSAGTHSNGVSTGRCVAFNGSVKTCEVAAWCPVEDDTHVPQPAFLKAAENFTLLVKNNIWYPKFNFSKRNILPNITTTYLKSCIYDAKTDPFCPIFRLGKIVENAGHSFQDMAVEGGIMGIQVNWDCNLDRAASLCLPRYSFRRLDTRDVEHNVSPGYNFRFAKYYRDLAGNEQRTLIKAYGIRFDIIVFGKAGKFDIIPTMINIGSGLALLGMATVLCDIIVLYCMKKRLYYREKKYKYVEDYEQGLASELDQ
As to the kind of experiment: Human Monocyte P2X4 Assay (FLIPR). The conditions noted are these: primary human monocytes, 3 μM BzATP, one value per donor; for IC50: read-out: Human P2X4 Monocytes (FLIPR Assay) IC50 for different donors; for Emax: read-out: Human P2X4 Monocytes (FLIPR Assay) Efficacy for different donors. The format is cell-based. The method, then: The principle of the assay is to measure calcium influx through endogenous P2X4 channels into primary human monocytes, following activation by 2′,3′-O-(4-benzoyl-benzoyl)-ATP (Bz-ATP). Intracellular calcium concentration changes were measured with a Flipr™ (Molecular Devices) device using a calcium sensitive dye (Fluo-8). In primary monocytes P2X4 is located at the lysosome membrane, therefore exocytosis has to be triggered to expose P2X4 at the cellular membrane.
Human peripheral blood mononuclear cells (PBMCs) from anticoagulated blood (blood cells, BC) were isolated via density gradient centrifugation. Whole blood was diluted 1:3 with PBS. Samples of 30 mL were layered carefully on top of 15 mL Biocoll (BIOCHROM) in 50 mL centrifuge tubes (Falcon). Tubes were centrifuged at 914×g for 25 min at RT without brake. The PBMC layer was removed with a 10 mL pipette and transferred into tubes with ice-cold PBS in a total volume of 50 mL. Cells were washed twice by pelleting at 300×g at 4° C., for 10 min and for 5 min respectively. PBMCs were re-suspended in 10 mL medium (X-vivo, Biozym Scientific) and counted in a Neubauer chamber.
Monocytes were isolated by negative selection using the Monocyte isolation kit II from Miltenyi (#130-091-153) according to the instructions. Isolation should be done fast and cells and solutions should be kept on ice at any time. PBMCs in batches of 10exp8 cells were pelleted (300×g, 10 min) and re-suspended with 300 μL MACS buffer in a 50 mL Falcon tube. FcR Blocking reagent (100 μl) and Biotin-Ab (100 μl) were added, mixed and incubated on ice for 10 min. MACS buffer (300 μL) and anti-Biotin Micro-beads (100 μL) were added, mixed and incubated on ice for 15 min. Cells were washed by pelleting (300×g for 10 min) and re-suspended in 500 μL MACS buffer. For each batch one separation column was placed in the MACS separator and rinsed with 3 mL MACS buffer. The cell suspension was added to the column, followed by 3×3 mL MACS buffer for washing, and the eluent containing the monocytes was collected. Cells were pelleted (300×g for 10 min), re-suspended in X-vivo medium and counted. Monocytes were seeded into fibronectin-coated micro-plates (384-well, black, flat transparent bottom; Corning #3848) at a density of 30,000 cells/well in 50 μL, and cultivated over night (37° C., 5% CO2).
Test substances were dissolved in 100% DMSO at a stock concentration of 10 mM and stored at −20° C. in aliquots. Serial dilutions (2×) were prepared in DMSO and diluted 500× with assay buffer to generate the antagonist plate. In the Flipr measurement, 10 μL per well were transferred (4× dilution) and a final top concentrations of 5 μM and 0.05% DMSO were obtained in the assay. Agonist BzATP was stored at 10 mM in aliquots and diluted to an intermediate concentration of 15 μM to generate the agonist plate. In the Flipr measurement, 10 μL per well were transferred (5× dilution) so that a final assay concentration of 3 μM was obtained.
For the experiment, the medium of the cell plate was discarded manually and 70 μL/well loading buffer was added and incubated for 1 h (37° C., 5% CO2). Loading buffer contained HBSS (w/o calcium/magnesium), 10 mM Hepes pH 7.4, 5 μM Fluo-8 (AM) (Tebu-bio) and 50 mM methylamine (Sigma) to trigger exocytosis. Loading buffer was discarded manually and 30 μL/well low-calcium assay buffer (5 mM KCl, 145 mM NaCl, 0.5 mM CaCl2), 13 mM glucose, 10 mM Hepes pH 7.4) was added. The antagonist plate was transferred (10 μL/well) and after 15 min at RT the agonist plate (10 μL/well) was transferred.
Agonist addition was recorded for 240 seconds after a 10 second baseline. For analysis, a baseline correction was applied, and the maximum of the curve was extracted. Data were normalized towards 0% inhibition (signal at 3 μM BzATP) and 100% inhibition (absence of BzATP stimulation) and fitted with a four-parameter sigmoidal inhibition curve using Prism Graph Pad to obtain IC50 values.

Where “and” joins values, the source holds several entries; their conditions need not be identical. Equal values may be shown once.

As usually defined, the IC50 is the concentration at which inhibition is half-maximal. As for `NS(=O)(=O)c1cc(NC(=O)Cc2ccccc2Cl)ccc1-n1cc(C(F)(F)F)cn1` [Example 19, 2-(2-Chlorophenyl)-N-{3-sulfamoyl-4-[4-(trifluoromethyl)-1H-pyrazol-1-yl]phenyl}acetamide], the IC50 is 59 nM (2×) and 21 nM and 76 nM and 45 nM.
Take `NS(=O)(=O)c1cc(NC(=O)Cc2ccccc2Cl)cnc1-n1cc(C(F)(F)F)cn1` [Example 380, 2-(2-Chlorophenyl)-N-{5-sulfamoyl-6-[4-(trifluoromethyl)-1H-pyrazol-1-yl]pyridin-3-yl}acetamide]: the IC50 is 263 nM and 251 nM and 434 nM and 93 nM and 50 nM and 207 nM.
Still for that read-out and setting: under `NS(=O)(=O)c1cc(NC(=O)Cc2ccccc2Cl)ccc1-c1cnn(C(F)F)c1` [Example 326, 2-(2-Chlorophenyl)-N-{4-[1-(difluoromethyl)-1H-pyrazol-4-yl]-3-sulfamoylphenyl}acetamide] stands 407 nM and 167 nM and 149 nM and 45 nM and 49 nM.
`NS(=O)(=O)c1cc(NC(=O)Cc2ccccc2Cl)ccc1-n1cc(F)cn1` [Example 26, 2-(2-Chlorophenyl)-N-[4-(4-fluoro-1H-pyrazol-1-yl)-3-sulfamoylphenyl]acetamide]: the Emax is 71%; the concentration for half-maximal inhibition (IC50) was 290 nM and 182 nM.
`N#Cc1cnn(-c2ccc(NC(=O)Cc3ccccc3Cl)cc2S(N)(=O)=O)c1` [Example 39, 2-(2-Chlorophenyl)-N-[4-(4-cyano-1H-pyrazol-1-yl)-3-sulfamoylphenyl]acetamide]: the Emax is 88%; the IC50 was 105 nM and 32 nM and 71 nM.

These data come from patent publication US20210179577A1, “AROMATIC SULFONAMIDE DERIVATIVES FOR THE TREATMENT OF ISCHEMIC STROKE” (Bayer Aktiengesellschaft, priority 2017, published 2021).
